From ChEMBL document CHEMBL5727281, “N2-phenyl-pyrido[3,4-D]pyrimidine-2, 8-diamine derivatives and their use as Mps1 inhibitors” (2019)
pIC50: −log10 of the molar value.

biological target: T1, Dual specificity protein kinase TTK (Homo sapiens, UniProt P33981); test: The reaction was carried out for 60 min at room temperature and stopped by the addition of buffer (10 μl) containing 20 mM EDTA, 0.05% (v/v) Brij-35, in 0.1M HEPES-buffered saline (Free acid, Sigma, UK). […] The % inhibition of the compounds is calculated relative to the means of selected control wells. […] The % inhibitions at each concentration are then fitted to a 4 parameter logistic fit.
T1 sequence (P33981 whole entry): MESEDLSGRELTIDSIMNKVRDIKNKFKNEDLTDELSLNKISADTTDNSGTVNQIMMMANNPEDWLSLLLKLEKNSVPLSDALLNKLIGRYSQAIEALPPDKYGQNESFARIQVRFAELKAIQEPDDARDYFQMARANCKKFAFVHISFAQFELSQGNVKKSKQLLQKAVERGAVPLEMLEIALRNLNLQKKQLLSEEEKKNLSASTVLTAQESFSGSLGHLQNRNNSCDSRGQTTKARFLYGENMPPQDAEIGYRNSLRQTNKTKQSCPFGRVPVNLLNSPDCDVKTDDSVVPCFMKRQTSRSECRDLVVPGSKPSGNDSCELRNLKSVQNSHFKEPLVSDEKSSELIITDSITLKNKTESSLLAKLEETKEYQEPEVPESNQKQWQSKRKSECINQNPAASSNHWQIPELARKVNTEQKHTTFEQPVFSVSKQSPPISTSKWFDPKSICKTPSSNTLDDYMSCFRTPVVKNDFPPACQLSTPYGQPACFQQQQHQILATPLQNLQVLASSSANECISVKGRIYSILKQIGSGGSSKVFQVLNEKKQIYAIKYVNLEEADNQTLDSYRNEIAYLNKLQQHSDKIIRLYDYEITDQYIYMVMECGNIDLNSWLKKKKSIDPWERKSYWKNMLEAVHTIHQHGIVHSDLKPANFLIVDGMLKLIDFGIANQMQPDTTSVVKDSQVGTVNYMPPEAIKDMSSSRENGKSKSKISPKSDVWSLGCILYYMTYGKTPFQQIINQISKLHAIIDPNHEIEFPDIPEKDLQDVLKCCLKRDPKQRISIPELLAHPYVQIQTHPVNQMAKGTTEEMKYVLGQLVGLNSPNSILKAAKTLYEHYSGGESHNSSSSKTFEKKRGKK

Structure (SMILES)	pIC50
CCOc1cc(-c2nncn2C)ccc1Nc1ncc2cc(C)nc(N3CC4(CCCC4)C3)c2n1	8.70
CCOc1cc(-c2nncn2C)ccc1Nc1ncc2cc(C)nc(N3CCC(C)(C#N)C3)c2n1 (stereo not drawn)	8.52
CCOc1cc(-c2nncn2C)ccc1Nc1ncc2cc(C)nc(N3CCC(C#N)C3)c2n1 (stereo not drawn)	8.52
CCOc1cc(-c2nncn2C)ccc1Nc1ncc2cc(C)nc(N3CC(O)(CC)C3)c2n1	8.40
COc1cc(-c2cnc(C)n2C)ccc1Nc1ncc2cc(C)nc(NCC3(C)CCOC3)c2n1 (stereo not drawn)	8.70

The remaining compounds from weak to strong by pIC50, led by results:

pIC50	Structure (SMILES)
8.22	CCOc1cc(-c2nncn2C)ccc1Nc1ncc2cc(C)nc(N3CC(F)(F)C3)c2n1
8.52	CCOc1cc(-c2nncn2C)ccc1Nc1ncc2cc(C)nc(N3CCC(C)(OC)CC3)c2n1
8.70	COc1cc(-c2cnc(C)n2C)ccc1Nc1ncc2cc(C)nc(N3CC(C)(C#N)C3)c2n1
